Measurements from US20140206682A1, “COMPOUNDS AND COMPOSITIONS AS PDGFR KINASE INHIBITORS” (NOVARTIS PHARMACEUTICALS UK LIMITED, priority 2011, published 2014).

What follows are molecules tested on PDGFR (assay: Rat A10 cell proliferation assay). Conditions: Table 1; Rat A10 cells, recombinant rat PDGF-BB, CellTiter-Glo after 68 hours.
Assay type: cell-based
Description: Compounds of Formula (I) provided herein were assayed to measure their capacity to inhibit c-kit and PDGFR kinases using the appropriate assay described below: c-Kit inhibition was evaluated using the Mo7e cell proliferation assay, and PDGFR inhibition was evaluated using the Rat A10 cell proliferation assay and the Human TG/HA-VSMC cell proliferation assay.
Rat A10 cells (ATCC) were resuspended in DMEM supplemented with 1% FBS and 10 ng/mL recombinant rat PDGF-BB at 20,000 cells/mL. The cells were aliquoted into 384 well plates at 50 μL/well and incubated for 4 hours at 37° C. 0.5 μL of test compound 3-fold serially diluted in DMSO was added to each well. The plates were returned to the incubator for a further 68 hours. 25 μL of CellTiter-Glo (Promega) was added to each well and the plates were incubated on the bench for 15 minutes. Luminescence was then read using a CLIPR CCD camera (Molecular Devices).
With `CN(C)CCCOc1ccc(-c2ccn3c(C(=O)Nc4cc(C(=O)NC5Cc6ccccc6C5O)ccc4F)cnc3c2)cn1` (stereo not drawn) [F13, 7-{6-[3-(dimethylamino)propoxy]pyridin-3-yl}-N-{2-fluoro-5-[(1-hydroxy-2,3-dihydro-1H-inden-2-yl)carbamoyl]phenyl}imidazo[1,2-a]pyridine-3-carboxamide] the IC50 was 56 nM. `Cn1nccc1-c1ccn2c(C(=O)Nc3cc(C(=O)NC4Cc5ccccc5C4O)ccc3F)cnc2c1` (stereo not drawn) [F14, N-{2-fluoro-5-[(1-hydroxy-2,3-dihydro-1H-inden-2-yl)carbamoyl]phenyl}-7-(1-methyl-1H-pyrazol-5-yl)imidazo[1,2-a]pyridine-3-carboxamide] was tested, and the IC50 was 32 nM. In the case of `Cn1nccc1-c1ccn2c(C(=O)Nc3cc(C(=O)N[C@@H]4Cc5ccccc5[C@@H]4O)ccc3F)cnc2c1` [F15, N-(2-fluoro-5-{[(1S,2R)-1-hydroxy-2,3-dihydro-1H-inden-2-yl]carbamoyl}phenyl)-7-(1-methyl-1H-pyrazol-5-yl)imidazo[1,2-a]pyridine-3-carboxamide], the IC50 is reported as 44 nM. `Cn1nccc1-c1ccn2c(C(=O)Nc3cc(C(=O)N[C@H]4Cc5ccccc5[C@H]4O)ccc3F)cnc2c1` [F16, N-(2-fluoro-5-{[(1R,2S)-1-hydroxy-2,3-dihydro-1H-inden-2-yl]carbamoyl}phenyl)-7-(1-methyl-1H-pyrazol-5-yl)imidazo[1,2-a]pyridine-3-carboxamide] gave an IC50 of 57 nM. With `Cc1ccc2ncc(C(=O)Nc3cc(C(=O)N[C@@H]4c5ccccc5C[C@@H]4O)ccc3F)n2c1` [F17, N-(2-fluoro-5-{[(1R,2S)-2-hydroxy-2,3-dihydro-1H-inden-1-yl]carbamoyl}phenyl)-6-methylimidazo[1,2-a]pyridine-3-carboxamide] the IC50 was 60 nM. In the case of `O=C(N[C@@H]1c2ccccc2C[C@@H]1O)c1ccc(F)c(NC(=O)c2cnc3cc(F)ccn23)c1` [F18, 7-fluoro-N-(2-fluoro-5-{[(1R,2S)-2-hydroxy-2,3-dihydro-1H-inden-1-yl]carbamoyl}phenyl)imidazo[1,2-a]pyridine-3-carboxamide], the IC50 is reported as 86 nM. For `COc1ccc2ncc(C(=O)Nc3cc(C(=O)N[C@@H]4c5ccccc5C[C@@H]4O)ccc3F)n2c1` [F19, N-(2-fluoro-5-{[(1R,2S)-2-hydroxy-2,3-dihydro-1H-inden-1-yl]carbamoyl}phenyl)-6-methoxyimidazo[1,2-a]pyridine-3-carboxamide], the IC50 was 82 nM. Work on `Cc1ccc(C(=O)N[C@@H]2c3ccccc3C[C@@H]2O)cc1NC(=O)c1cnc2ccccn12` [F20, N-(5-{[(1R,2S)-2-hydroxy-2,3-dihydro-1H-inden-1-yl]carbamoyl}-2-methylphenyl)imidazo[1,2-a]pyridine-3-carboxamide] yielded an IC50 of 29 nM. `Cc1ccc(C(=O)N[C@H]2c3ccccc3C[C@H]2O)cc1NC(=O)c1cnc2ccccn12` [F21, N-(5-{[(1S,2R)-2-hydroxy-2,3-dihydro-1H-inden-1-yl]carbamoyl}-2-methylphenyl)imidazo[1,2-a]pyridine-3-carboxamide] showed an IC50 of 95 nM. For `Cc1ccc(C(=O)N[C@@H]2c3ccccc3C[C@H]2O)cc1NC(=O)c1cnc2ccccn12` [F22, N-(5-{[(1R,2R)-2-hydroxy-2,3-dihydro-1H-inden-1-yl]carbamoyl}-2-methylphenyl)imidazo[1,2-a]pyridine-3-carboxamide], the IC50 was 28 nM. In the case of `Cc1ccc(C(=O)N[C@H]2c3ccccc3C[C@@H]2O)cc1NC(=O)c1cnc2ccccn12` [F23, N-(5-{[(1S,2S)-2-hydroxy-2,3-dihydro-1H-inden-1-yl]carbamoyl}-2-methylphenyl)imidazo[1,2-a]pyridine-3-carboxamide], the IC50 is reported as 21 nM. `O=C(N[C@@H]1CCCC[C@H]1CO)c1ccc(F)c(NC(=O)c2cnc3ccccn23)c1` [F24, N-(2-fluoro-5-{[(1R,2R)-2-(hydroxymethyl)cyclohexyl]carbamoyl}phenyl)imidazo[1,2-a]pyridine-3-carboxamide] showed an IC50 of 94 nM. Work on `[2H]c1c([2H])c([2H])n2c(C(=O)Nc3cc(C(=O)N[C@@H]4c5ccccc5C[C@@H]4O)ccc3F)cnc2c1[2H]` [F25, N-(2-fluoro-5-{[(1R,2S)-2-hydroxy-2,3-dihydro-1H-inden-1-yl]carbamoyl}phenyl)-5,6,7,8-tetrahydrogenioimidazo[1,2-a]pyridine-3-carboxamide] yielded an IC50 of 65 nM. `Cc1ccn2c(C(=O)Nc3cc(C(=O)N[C@@H]4c5ccccc5C[C@@H]4O)ccc3F)cnc2c1` [F26, N-(2-fluoro-5-{[(1R,2S)-2-hydroxy-2,3-dihydro-1H-inden-1-yl]carbamoyl}phenyl)-7-methylimidazo[1,2-a]pyridine-3-carboxamide] showed an IC50 of 49 nM. With `O=C(N[C@@H]1c2ccccc2C[C@@H]1O)c1ccc(F)c(NC(=O)c2cnc3ccc(F)cn23)c1` [F27, 6-fluoro-N-(2-fluoro-5-{[(1R,2S)-2-hydroxy-2,3-dihydro-1H-inden-1-yl]carbamoyl}phenyl)imidazo[1,2-a]pyridine-3-carboxamide] the IC50 was 168 nM. Molecule `Cc1ccc2ncc(C(=O)Nc3cc(C(=O)N[C@@H]4c5ccc(F)cc5C[C@@H]4O)ccc3F)n2c1` [F28, N-(2-fluoro-5-{[(1R,2S)-5-fluoro-2-hydroxy-2,3-dihydro-1H-inden-1-yl]carbamoyl}phenyl)-6-methylimidazo[1,2-a]pyridine-3-carboxamide] has an IC50 of 129 nM. `Cc1ccc2ncc(C(=O)Nc3cc(C(=O)N[C@@H]4c5cc(F)ccc5C[C@@H]4O)ccc3F)n2c1` [F29, N-(2-fluoro-5-{[(1R,2S)-6-fluoro-2-hydroxy-2,3-dihydro-1H-inden-1-yl]carbamoyl}phenyl)-6-methylimidazo[1,2-a]pyridine-3-carboxamide] gave an IC50 of 105 nM. Work on `Cc1ccc(C(=O)NCc2ccccc2N2CCCC(O)C2)cc1NC(=O)c1cnc2ccccn12` (stereo not drawn) [F30, N-[5-({[2-(3-hydroxypiperidin-1-yl)phenyl]methyl}carbamoyl)-2-methylphenyl]imidazo[1,2-a]pyridine-3-carboxamide] yielded an IC50 of 27 nM. For `Cc1ccc(C(=O)NCc2ccccc2N2CCC(O)C2)cc1NC(=O)c1cnc2ccccn12` (stereo not drawn) [F31, N-[5-({[2-(3-hydroxypyrrolidin-1-yl)phenyl]methyl}carbamoyl)-2-methylphenyl]imidazo[1,2-a]pyridine-3-carboxamide], the IC50 was 42 nM.

Same assay, conditions: Table 2; Rat A10 cells, recombinant rat PDGF-BB, CellTiter-Glo after 68 hours
`COc1ccc2ncc(C(=O)Nc3cc(C(=O)N[C@H]4c5ccccc5C[C@H]4O)ccc3F)n2c1` [F35, N-(2-fluoro-5-{[(1S,2R)-2-hydroxy-2,3-dihydro-1H-inden-1-yl]carbamoyl}phenyl)-6-methoxyimidazo[1,2-a]pyridine-3-carboxamide] was tested, and the IC50 was 228 nM. In the case of `Cc1ccc2ncc(C(=O)Nc3cc(C(=O)N[C@H]4c5ccccc5C[C@H]4O)ccc3F)n2c1` [F36, N-(2-fluoro-5-{[(1S,2R)-2-hydroxy-2,3-dihydro-1H-inden-1-yl]carbamoyl}phenyl)-6-methylimidazo[1,2-a]pyridine-3-carboxamide], the IC50 is reported as 234 nM. `O=C(N[C@@H]1Cc2ccccc2[C@H]1O)c1ccc(F)c(NC(=O)c2cnc3ccccn23)c1` [F37, N-(2-fluoro-5-{[(1R,2R)-1-hydroxy-2,3-dihydro-1H-inden-2-yl]carbamoyl}phenyl)imidazo[1,2-a]pyridine-3-carboxamide] showed an IC50 of 242 nM. `O=C(N[C@@H]1Cc2ccccc2[C@@H]1O)c1ccc(F)c(NC(=O)c2cnc3ccccn23)c1` [F38, N-(2-fluoro-5-{[(1S,2R)-1-hydroxy-2,3-dihydro-1H-inden-2-yl]carbamoyl}phenyl)imidazo[1,2-a]pyridine-3-carboxamide] was tested, and the IC50 was 248 nM. `CN(C)CCCOc1ccc(-c2ccn3c(C(=O)Nc4cc(C(=O)N[C@@H]5Cc6ccccc6[C@@H]5O)ccc4F)cnc3c2)cn1` [F39, 7-{6-[3-(dimethylamino)propoxy]pyridin-3-yl}-N-(2-fluoro-5-{[(1S,2R)-1-hydroxy-2,3-dihydro-1H-inden-2-yl]carbamoyl}phenyl)imidazo[1,2-a]pyridine-3-carboxamide] gave an IC50 of 252 nM. `O=C(N[C@H](CO)CC1CCCCC1)c1cccc(NC(=O)c2cnc3ccccn23)c1` [F48, N-(3-{[(2S)-1-cyclohexyl-3-hydroxypropan-2-yl]carbamoyl}phenyl)imidazo[1,2-a]pyridine-3-carboxamide] showed an IC50 of 363 nM. With `CCC[C@@H](CO)NC(=O)c1ccc(F)c(NC(=O)c2cnc3ccccn23)c1` [F49, N-(2-fluoro-5-{[(2S)-1-hydroxypentan-2-yl]carbamoyl}phenyl)imidazo[1,2-a]pyridine-3-carboxamide] the IC50 was 373 nM. `O=C(N[C@H]1CCCC[C@H]1O)c1ccc(F)c(NC(=O)c2cnc3ccccn23)c1` [F50, N-(2-fluoro-5-{[(1S,2R)-2-hydroxycyclohexyl]carbamoyl}phenyl)imidazo[1,2-a]pyridine-3-carboxamide] gave an IC50 of 373 nM. `O=C(N[C@H]1CCCC[C@@H]1CO)c1ccc(F)c(NC(=O)c2cnc3ccccn23)c1` [F51, N-(2-fluoro-5-{[(1S,2S)-2-(hydroxymethyl)cyclohexyl]carbamoyl}phenyl)imidazo[1,2-a]pyridine-3-carboxamide] was tested, and the IC50 was 387 nM. For `O=C(NC12C[C@@H]3C[C@@H](CC(O)(C3)C1)C2)c1ccc(F)c(NC(=O)c2cnc3ccccn23)c1` [F52, N-(2-fluoro-5-{[(5R,7S)-3-hydroxyadamantan-1-yl]carbamoyl}phenyl)imidazo[1,2-a]pyridine-3-carboxamide], the IC50 was 422 nM. Work on `O=C(NC1Cc2ccccc2C1O)c1ccc(F)c(NC(=O)c2cnc3ccccn23)c1` (stereo not drawn) [F53, N-{2-fluoro-5-[(1-hydroxy-2,3-dihydro-1H-inden-2-yl)carbamoyl]phenyl}imidazo[1,2-a]pyridine-3-carboxamide] yielded an IC50 of 433 nM.
